According to patent US6296785A, “Indeno-fused photochromic naphthopyrans” (PPG Industries Ohio, Inc., priority 2000, dated 2001):

Assays:
Type in all cases: physicochemical
[1] = Relative ΔOD at Saturation Test; conditions: ΔOD at saturation (Band A)/ΔOD at saturation (Band B)×100
Text: In accordance with the present invention, it has now been discovered that certain novel indeno[2,1-f]naphtho[1,2-b]pyrans having two absorption bands in the activated (colored) state, an acceptable fade rate, high activated intensity, a high coloration rate and a rating of 80 or higher in the Relative ΔOD at Saturation Test may be prepared. The Relative ΔOD at Saturation Test is described in Example 21. The ratings of the test are defined herein as the result obtained when the optical density of band "A" is divided by the optical density of band "B" and multiplied by 100. It is believed that compounds having a rating of 80 or higher are most valuable for formulating neutral grays, greens and browns for commercial photochromic ophthalmic eyeware.
(§1) Testing was done with the photochromic compounds described in Examples 1 through 20 and Comparative Examples 1 through 3 in the following manner. A quantity of photochromic compound calculated to yield a 1.5×10^-3 molal solution was added to a flask containing 50 grams of a monomer blend of 4 parts ethoxylated bisphenol A dimethacrylate (BPA 2EO DMA), 1 part poly(ethylene glycol) 600 dimethacrylate, and 0.033 weight percent 2,2'-azobis(2-methyl propionitrile) (AIBN). The photochromic compound was dissolved into the monomer blend by stirring and gentle heating, if necessary. After a clear solution was obtained, it was poured into a flat sheet mold having the interior dimensions of 2.2 mm×6 inches (15.24 cm)×6 inches (15.24 cm). The mold was sealed and placed in a horizontal air flow, programmable oven programmed to increase the temperature from 40° C. to 95° C. over a 5 hour interval, hold the temperature at 95° C. for 3 hours, lower it to 60° C. over a 2 hour interval and then hold it at 60° C. for 16 hours. After the mold was opened, the polymer sheet was cut using a diamond blade saw into 2 inch (5.1 centimeters) test squares.
(§2) The photochromic test squares of Part A were tested for photochromic response rates on an optical bench. Prior to testing on the optical bench, the photochromic test squares were exposed to 365 nanometer ultraviolet light for about 15 minutes to activate the photochromic compounds and then placed into a 76° C. oven for about 15 minutes to bleach the photochromic compounds. The test squares were then cooled to room temperature, exposed to fluorescent room lighting for at least 2 hours and then kept covered for at least 2 hours prior to testing on an optical bench maintained at 72° F. (22.2° C.). The bench was fitted with a 250 watt Xenon arc lamp, a remote controlled shutter, a copper sulfate bath acting as a heat sink for the arc lamp, a Schott WG-320 nm cut-off filter which removes short wavelength radiation; neutral density filter(s) and a sample holder in which the square to be tested was inserted. The power output of the optical bench, i.e., the dosage of light that the sample lens would be exposed to, was calibrated with a photochromic test square used as a reference standard. […] The UV-A detector was placed into the sample holder and the light output was measured. Adjustments to the power output were made by increasing or decreasing the lamp wattage or by adding or removing neutral density filters in the light path.
Change in optical density (ΔOD) was determined by inserting a test square in the bleached state into the sample holder, adjusting the transmittance scale to 100%, opening the shutter from the Xenon lamp to provide ultraviolet radiation to change the test square from the bleached state to an activated (i.e., darkened) state, measuring the transmittance in the activated state, and calculating the change in optical density according to the formula: ΔOD=log(100/% Ta), where % Ta is the percent transmittance in the activated state and the logarithm is to the base 10. […]

[2] = photochromic response of test squares on an optical bench (sensitivity, saturation optical density, bleach rate); conditions: for ΔOD @ Saturation (Band A) / ΔOD @ Saturation (Band B): UV exposure 15 minutes; for ΔOD @ Saturation (Band A) / Sensitivity ΔOD/MIN (Band A) / ΔOD @ Saturation (Band B) / Sensitivity ΔOD/MIN (Band B): 72° F. (22.2° C.), polymer test square; for Sensitivity ΔOD/MIN (Band A) / Sensitivity ΔOD/MIN (Band B): first five (5) seconds of UV exposure, expressed per minute; for Bleach Rate T 1/2: measured at band B, room temperature (72° F., 22.2° C.) after removal of activating light
Method: as §1, §2
A monitoring, collimated beam of light from a tungsten lamp was passed through the square at a small angle (approximately 30°) normal to the square. After passing through the square, the light from the tungsten lamp was directed to a detector through Spectral Energy Corp. GM-200 monochromator set at the previously determined visible lambda max of the photochromic compound being measured. The output signals from the detector were processed by a radiometer.
Change in optical density (ΔOD) was determined by inserting a test square in the bleached state into the sample holder, adjusting the transmittance scale to 100%, opening the shutter from the Xenon lamp to provide ultraviolet radiation to change the test square from the bleached state to an activated (i.e., darkened) state, measuring the transmittance in the activated state, and calculating the change in optical density according to the formula: ΔOD=log(100/% Ta), where % Ta is the percent transmittance in the activated state and the logarithm is to the base 10.
The ΔOD/Min, which represents the sensitivity of the photochromic compound's response to UV light, was measured over the first five (5) seconds of UV exposure, then expressed on a per minute basis. The saturation optical density (ΔOD@ Saturation) was taken under identical conditions as the ΔOD/Min, except UV exposure was continued for 15 minutes. […]

[3] = lambda max (Vis) of activated photochromic test squares in a Varian Cary 3 uv-visible spectrophotometer; conditions: activated form in test square
Method: as §1
The lambda max (Vis) is the wavelength in the visible spectrum at which the maximum absorption of the activated (colored) form of the photochromic compound in a test square occurs. The lambda max (Vis) wavelengths reported in Table 1 were determined by testing the photochromic test square polymerizates of Part A in a Varian Cary 3 uv-visible spectrophotometer. The bleach rate (T 1/2) is the time interval in seconds for the absorbance of the activated form of the photochromic compound in the test squares to read one half the highest absorbance at room temperature (72° F., 22.2° C.) after removal of the source of activating light.
For each lambda max visible, the corresponding optical density (Δ OD/Min and Δ OD at saturation) for the desired compounds of the Examples and Comparative Examples are tabulated in Table 1 for the two bands (A and B) of peak absorption for each compound. Table 1 also includes the bleach rate (T 1/2) for each of the compounds as measured at band B. The ratings of the Relative Δ OD at Saturation Test for the bands A and B of each of the Examples and Comparative Examples are calculated as follows: Δ OD at saturation (Band A)/Δ OD at saturation (Band B)×100.

SMILES	Relative ΔOD at Saturation (rating) [1]	ΔOD @ Saturation (Band A) [2]	Sensitivity ΔOD/MIN (Band A) [2]	ΔOD @ Saturation (Band B) [2]	Sensitivity ΔOD/MIN (Band B) [2]	Bleach Rate T 1/2 [2] [min]	λ MAX Vis (Band A) [3] [nm]	λ MAX Vis (Band B) [3] [nm]
COc1ccc(C2(c3ccc(N4CCOCC4)cc3)C=Cc3c4c(c5cc(OC)c(OC)cc5c3O2)-c2ccccc2C4c2ccccc2)cc1 (stereo not drawn) [Example 8, 3-(4-methoxyphenyl)-3-(4-morpholinophenyl)-6,7-dimethoxy-13-phenyl-3H, 13H-indeno[2,1-f]naphtho[1,2-b]pyran]	98	0.43	0.14 ΔOD/MIN	0.44	0.18 ΔOD/MIN	2.98	484	603
COc1ccc(C2(c3ccc(N4CCOCC4)cc3)C=Cc3c4c(c5cc(OC)c(OC)cc5c3O2)-c2ccccc2C4(C)C)cc1 (stereo not drawn) [Example 9, 3-(4-methoxyphenyl)-3-(4-morpholinophenyl)-6,7-dimethoxy-13,13-dimethyl-3H,13H-indeno[2,1-f]naphtho[1,2-b]pyran]	102	0.60	0.18 ΔOD/MIN	0.59	0.23 ΔOD/MIN	3.4	477	597
COc1ccc(C2(c3ccc(N(C)C)cc3)C=Cc3c4c(c5cc(OC)c(OC)cc5c3O2)-c2ccccc2C4(C)C)cc1 (stereo not drawn) [Example 10, 3-(4-methoxyphenyl)-3-(4-dimethylaminophenyl)-6,7-dimethoxy-13,13-dimethyl-3H,13H-indeno[2,1-f]naphtho[1,2-b]pyran]	82	0.41	0.20 ΔOD/MIN	0.50	0.28 ΔOD/MIN	2.17	500	615
COc1ccc(C2(c3ccc(OC)cc3)C=Cc3c4c(c5c(OC)c(OC)c(OC)cc5c3O2)-c2ccccc2C4c2ccccc2)cc1 (stereo not drawn) [Example 11, 3,3-di(4-methoxyphenyl)-6,7,8-trimethoxy-13-phenyl-3H,13H-indeno[2,1-f]naphtho[1,2-b]pyran]	106	0.66	0.28 ΔOD/MIN	0.62	0.25 ΔOD/MIN	3.05	482	581

Now from value to compound:

Relative ΔOD at Saturation (rating) [1]	ΔOD @ Saturation (Band A) [2]	Sensitivity ΔOD/MIN (Band A) [2]	ΔOD @ Saturation (Band B) [2]	Sensitivity ΔOD/MIN (Band B) [2]	Bleach Rate T 1/2 [2] [min]	λ MAX Vis (Band A) [3] [nm]	λ MAX Vis (Band B) [3] [nm]	SMILES
106	0.46	0.26 ΔOD/MIN	0.43	0.27 ΔOD/MIN	2.17	480	632	CCC1(O)c2cc(OC)c(OC)cc2-c2c1c1c(c3cc(OC)c(OC)cc23)OC(c2ccc(OC)cc2)(c2ccc(N3CCOCC3)cc2)C=C1 (stereo not drawn) [Example 12, 3-(4-methoxyphenyl)-3-(4-morpholinophenyl)-6,7,10,11-tetramethoxy-13-hydroxy-13-ethyl-3H,13H-indeno[2,1-f]naphtho[1,2-b]pyran]
105	0.39	0.27 ΔOD/MIN	0.37	0.25 ΔOD/MIN	1.42	482	634	CCCCC1(O)c2cc(OC)c(OC)cc2-c2c1c1c(c3cc(OC)c(OC)cc23)OC(c2ccc(OC)cc2)(c2ccc(N3CCOCC3)cc2)C=C1 (stereo not drawn) [Example 13, 3-(4-methoxyphenyl)-3-(4-morpholinophenyl)-6,7,10,11-tetramethoxy-13-hydroxy-13-butyl-3H,13H-indeno[2,1-f]naphtho[1,2-b]pyran]
103	0.41	0.24 ΔOD/MIN	0.40	0.22 ΔOD/MIN	1.8	485	600	CCC1(O)c2ccccc2-c2c1c1c(c3cc(OC)c(OC)cc23)OC(c2ccccc2)(c2ccc(N3CCOCC3)cc2)C=C1 (stereo not drawn) [Example 14, 3-(4-morpholinophenyl)-3-phenyl-6,7-dimethoxy-13-hydroxy-13-ethyl-3H,13H-indeno[2,1,-f]naphtho[1,2-b]pyran]
168	0.37	0.29 ΔOD/MIN	0.22	0.18 ΔOD/MIN	1.27	457	579	CCCCC1(O)c2ccccc2-c2c1c1c(c3cc(OC)c(OC)cc23)OC(c2ccc(OC)cc2)(c2ccc(OC)cc2)C=C1 (stereo not drawn) [Example 15, 3,3-di(4-methoxyphenyl)-6,7-dimethoxy-13-hydroxy-13-butyl-3H,13H-indeno[2,1,-f]naphtho[1,2-b]pyran]
106	0.37	0.22 ΔOD/MIN	0.35	0.19 ΔOD/MIN	1.88	485	600	CCCCC1(O)c2ccccc2-c2c1c1c(c3cc(OC)c(OC)cc23)OC(c2ccccc2)(c2ccc(N3CCOCC3)cc2)C=C1 (stereo not drawn) [Example 16, 3-(4-morpholinophenyl)-3-phenyl-6,7-dimethoxy-13-hydroxy-13-butyl-3H,13H-indeno[2,1,-f]naphtho[1,2-b]pyran]
